Experimental findings from patent US9464308B2, “Method for transcriptional amplification of nucleic acids combining steps of different temperatures” (priority 2011, dated 2016) are described below.

One may read the ΔTm as the shift of the melting midpoint relative to a reference.

The test system of assay [1] is HIV-1 type B transcript. Briefly: NASBA HIV-1 2.0 amplification test at 46° C., functional screening of thermostabilizing compounds. In kind it is biochemical. The following applies: 7.5 cps/reaction HIV-1B transcript, lactose 0.21 M, sorbitol 1.2 M, sucrose 0.6 M. As to the method:
The FIG. 1 represent the functional screening of thermostabilizing compounds during NASBA amplifications at 46° C. in the presence of 7.5 cps/reaction of HIV-1B transcript (seven replicas per screening), with in:
A set of compounds with thermostabilizing properties or assumed to have such properties was evaluated in a NASBA HIV-1 2.0 amplification test on a Nuclisens EasyQ™ amplification platform (bioMérieux, Marcy l'Etoile, France) according to the supplier's recommendations. 5 cps to 30 cps of an HIV-1 type B transcript were used as target in each reaction in the presence or absence of the compound to be evaluated.
The obtaining of an amplification in the presence of the compound at a temperature of 46° C. makes it possible to validate the compound as compatible and thermostabilizing for the NASBA reaction.

Assay [2] relates to HIV-1 type B transcript. Briefly: Sensitivity of NASBA detection at 46° C. without target denaturation phase. In kind it is biochemical. The following applies: HIV-1 type B transcript at 5 cps/test, no target denaturation phase, N=24. The text has this: FIG. 4 gives the measurement of the sensitivity (%) obtained in the presence of various thermostabilizing compounds during an HIV-1 type B NASBA amplification at 5 cps/test and without target denaturation phase (N=24).
The objective of this is to simplify the method by virtue of the simultaneous addition of the targets to the enzyme and amplification reagent mixes.
A Nuclisens™ HIV-1 2.0 amplification kit (ref.: 285033, bioMérieux, Marcy l'Etoile, France) was used to carry out the amplification experiments in the presence of trehalose, sucrose or sorbitol at the detection limit with an HIV-1 type B transcript at 5 cps/test. Each amplification is replicated 24 times in order to estimate the sensitivity of the test in the presence of thermostabilizing compounds at 46° C.
The sensitivity is expressed as percentage of positive signals determined by the EasyQ™ analysis system, relative to the total number of replicates.

In assay [3] the target is T1, T7 RNA polymerase (Escherichia phage T7, UniProt P00573).
T1 construct: purchased bioMérieux, Marcy l'Etoile, France
T1 sequence (P00573 whole entry): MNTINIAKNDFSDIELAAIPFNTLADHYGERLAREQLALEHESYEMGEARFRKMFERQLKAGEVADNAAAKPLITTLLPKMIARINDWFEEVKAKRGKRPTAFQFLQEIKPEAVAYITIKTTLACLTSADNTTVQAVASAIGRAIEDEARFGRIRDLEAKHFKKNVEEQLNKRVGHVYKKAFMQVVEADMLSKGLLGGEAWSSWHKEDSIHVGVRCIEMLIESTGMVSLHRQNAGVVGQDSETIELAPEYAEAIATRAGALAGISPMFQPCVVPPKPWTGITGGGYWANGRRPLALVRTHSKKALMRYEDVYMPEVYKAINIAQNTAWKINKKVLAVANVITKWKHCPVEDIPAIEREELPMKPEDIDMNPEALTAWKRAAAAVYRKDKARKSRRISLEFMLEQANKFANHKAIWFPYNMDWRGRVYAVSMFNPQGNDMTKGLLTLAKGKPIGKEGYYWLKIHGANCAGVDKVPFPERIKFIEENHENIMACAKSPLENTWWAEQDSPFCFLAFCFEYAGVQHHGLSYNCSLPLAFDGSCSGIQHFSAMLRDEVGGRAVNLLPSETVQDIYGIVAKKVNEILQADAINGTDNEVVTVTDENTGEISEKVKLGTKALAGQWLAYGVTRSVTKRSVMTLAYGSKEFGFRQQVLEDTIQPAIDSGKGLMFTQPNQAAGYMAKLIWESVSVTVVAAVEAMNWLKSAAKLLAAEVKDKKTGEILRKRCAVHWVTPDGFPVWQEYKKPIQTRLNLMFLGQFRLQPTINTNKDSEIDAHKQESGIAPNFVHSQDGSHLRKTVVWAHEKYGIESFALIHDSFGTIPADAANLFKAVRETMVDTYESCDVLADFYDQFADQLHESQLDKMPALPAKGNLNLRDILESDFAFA
Briefly: Maximum preincubation temperature preserving T7 RNA polymerase activity (3 min preincubation). In kind it is biochemical. The settings on record: 1.4 M sorbitol. As for the experimental part:
FIG. 2 describes the residual activity (%) of T7 RNA polymerase after 3 minutes of preincubation at various temperatures and in the presence of various thermostabilizing compounds.
In this example, the maximum temperature that the T7 RNA polymerase could withstand for a preincubation of 3 minutes in the presence of thermostabilizing compounds is determined.
This step can be likened to a target predenaturation or preincubation phase. The protocol used in this example is similar to that of example 2, with the exception of the fact that the temperatures are variable and that the preincubation time was fixed at 3 minutes.

Assay [4] deals with T1, T7 RNA polymerase. Briefly: Thermostability (T1/2) at 46° C. of T7 RNA polymerase activity. It counts as biochemical. The settings on record: environment specific to NASBA, sorbitol 1.48 M. As to the method: In this example, the values of T1/2 of T7 RNA polymerase are determined in the presence or absence of polyols. A description of the measurement method is given below, as are the various reagents used.
Mix buffers B, C and D according to the following proportions with the following Nuclisens™ HIV-1 2.0 reagents (ref.: 285033, bioMérieux, Marcy l'Etoile, France) (for eight reactions): • 36.08 μl buffer A • 6.32 μl buffer B • 25.36 μl buffer C • 173.6 μl buffer D • eight “Nuclisens™ HIV-1 2.0 accusphere reagent” • 960 μl of “Nuclisens™ HIV-1 2.0 diluent reagent”. […]
• 1. The enzymes to be evaluated are diluted in such a way as to have a volumetric activity of 109 kU/ml. • 2. A volume of 20 μl of the enzyme to be evaluated is diluted in 840 μl of solution W1. • 3. 114 μl of the compound to be evaluated are then added to 193.5 μl of enzymatic mix described in point 2 above. • 4. […] 20 μl of solution S are added to 5 n1 of this preincubated mixture in order to measure the rate of increase in fluorescence between 5 and 10 minutes, associated with the residual activity of the enzyme. • 6. […]

For assay [5], the target named is T1, T7 RNA polymerase. Briefly: Thermal denaturation of T7 RNA polymerase (T7 Tm) by UV spectrophotometry. It counts as physicochemical. As for the experimental part: T7 RNA polymerase was chosen as model enzyme since it is the most sensitive to thermal denaturation; the T7 Tm without additive is 48.5° C.
A UV spectrophotometry technique is used to measure the T7 Tm values. The change in the absorbance of the protein at λ=280 nm as a function of temperature is measured. When the enzyme is heated, the solution becomes cloudy, and aggregates form which correspond to the denatured form. The Tm corresponds to the temperature for which there is 50% of native form and 50% of denatured form (first derivative of the curve absorbance=f(temperature)).
In a polypropylene flask, 4 ml of 300 mM PBS phosphate buffer (Aldrich P-4417, St Quentin Fallavier, France) are mixed with 12μl of T7 RNA polymerase enzyme (bioMérieux, Marcy l'Etoile, France) at 17 mg/ml, i.e. a final protein concentration of 0.05 mg/ml. 500 μl of T7 RNA polymerase solution at 0.05 mg/ml and 500 μl of a concentrated solution of additives (Aldrich, St Quentin Fallavier, France) or of 300 mM PBS for the control are then placed in a quartz cuvette for UV spectrophotometry. After homogenization, the change in absorbance at λ=280 nm is measured as a function of temperature, between 30 and 65° C. at 1° C./min, in order to determine the T7 Tm as previously described (Cary UV spectrophotometer, Varian, Les Ulis, France).

On to `OC[C@@H](O)[C@@H](O)[C@H](O)[C@@H](O)CO` [Sorbitol, sorbitol], for which the “NASBA amplification at 46° C. (positive signals out of seven replicas)” value in the assay with HIV-1 type B transcript [1] was “at least four positive signals out of seven replicas”. Further, the “sensitivity (percentage of positive signals relative to total replicates)” value in the assay on HIV-1 type B transcript [2] came to 100%. Further, the “T7 RNA polymerase activity preserved” value turned out to be 100% at T7 RNA polymerase [3] (3 minutes at 48° C., 0.7 M sucrose, 0.4 M trehalose) and 100% at T7 RNA polymerase [3] (3 minutes at 49° C.). Moreover, the “thermostabilizing effect on the T7 RNA polymerase activity (in words)” value at T7 RNA polymerase [4] is listed as “greatest thermostabilizing effect”. For the same compound, the ΔTm at T7 RNA polymerase [5] (T7 RNA polymerase at 0.05 mg/ml, PBS 150 mM pH 7.5, versus control without additive (T7 Tm 48.5° C.), Sorbitol 1M, Sucrose 1M, Lactose 0.35M, Raffmose 0.085M, D-Turanose 0.15M, read-out: ΔTm) came to 0.9 °C. Moreover, the “denaturation temperature of the enzyme (in words)” value on T7 RNA polymerase [5] (heating T7 RNA polymerase in the presence of the additive) is “very significantly increase the denaturation temperature of the enzyme”.
